Test results as given in ChEMBL document CHEMBL4732203, “Synthesis of polyenylpyrrole derivatives with selective growth inhibitory activity against T-cell acute lymphoblastic leukemia cells” (Bioorg Med Chem Lett, 2021).

Legend:
Format in all cases: functional, cell-based
[1] = test system: CCRF-CEM; assay: Cytotoxicity against human CCRF-CEM cells assessed as reduction in cell viability incubated for 72 hrs
[2] = test system: Raji; assay: Cytotoxicity against human Raji cells assessed as reduction in cell viability incubated for 72 hrs
[3] = test system: HSC-3; assay: Cytotoxicity against human HSC-3 cells assessed as reduction in cell viability incubated for 3 days; conditions: HSC-3, 72 h
[4] = test system: HeLa; assay: Cytotoxicity against human HeLa cells assessed as reduction in cell viability incubated for 3 days; conditions: 72 h

CCOC(=O)/C=C/c1ccc[nH]1
IC50 [1]: > 10 µM | IC50 [2]: > 10 µM

CCOC(=O)/C=C/C=C/C=C/C=C/c1ccco1
IC50 [1]: > 10 µM | IC50 [2]: > 10 µM

CCOC(=O)/C=C/C=C/C=C/C=C/c1[nH]ccc1Cl
IC50 [3]: > 10 µM | IC50 [1]: 0.27 µM | IC50 [4]: > 10 µM | IC50 [2]: > 10 µM

CCOC(=O)/C=C/C=C/c1nccs1
IC50 [1]: > 10 µM | IC50 [2]: > 10 µM

CCOC(=O)/C=C/C=C/C=C/c1nccs1
IC50 [1]: 4.5 µM | IC50 [2]: 4.35 µM

CCOC(=O)/C=C/C=C/C=C/C=C/c1ccc[nH]1
IC50 [1]: 1.34 µM | IC50 [2]: 4.09 µM

CCOC(=O)/C=C/C=C/c1ccco1
IC50 [1]: > 10 µM | IC50 [2]: > 10 µM

O=C(/C=C/C=C/C=C/c1ccc[nH]1)OCc1ccccc1
IC50 [1]: 0.83 µM | IC50 [2]: > 10 µM

O=C(/C=C/C=C/C=C/C=C/c1ccc[nH]1)c1ccccc1
IC50 [1]: 0.72 µM | IC50 [2]: 5.99 µM

COc1cc(\C(C)=C/C=C/C=C/C=C/c2[nH]ccc2Cl)oc(=O)c1C
IC50 [1]: 1.76 µM | IC50 [2]: > 10 µM

O=C(/C=C/C=C/C=C/c1ccc[nH]1)c1ccccc1
IC50 [1]: 3.07 µM | IC50 [2]: 9.89 µM

CCOC(=O)/C=C/C=C/C=C/C=C/c1cccn1C
IC50 [1]: > 10 µM | IC50 [2]: > 10 µM

CCOC(=O)/C=C/C=C/C=C/C=C/c1nccs1
IC50 [1]: > 10 µM | IC50 [2]: > 10 µM

CCOC(=O)/C=C/C=C/C=C/c1ccco1
IC50 [1]: > 10 µM | IC50 [2]: > 10 µM

O=C(/C=C/C=C/C=C/C=C/c1ccc[nH]1)OCc1ccccc1
IC50 [1]: 0.19 µM | IC50 [2]: 1.4 µM

CCOC(=O)/C=C/C=C/C=C/c1ccc[nH]1
IC50 [1]: 3.67 µM | IC50 [2]: > 10 µM

CCOC(=O)/C=C/C=C/C=C/c1[nH]ccc1Cl
IC50 [1]: 2.42 µM | IC50 [2]: > 10 µM

CCOC(=O)/C=C/C=C/c1ccc[nH]1
IC50 [1]: > 10 µM | IC50 [2]: > 10 µM

CCOC(=O)/C=C/C=C/C=C/C=C/C=C/c1ccc[nH]1
IC50 [1]: 0.45 µM | IC50 [2]: > 10 µM

O=C(/C=C/C=C/C=C/C=C/c1[nH]ccc1Cl)OCc1ccccc1
IC50 [1]: 0.28 µM | IC50 [2]: 6.7 µM

CCOC(=O)/C=C/C=C/c1[nH]ccc1Cl
IC50 [1]: > 10 µM | IC50 [2]: > 10 µM

COc1cc(/C=C/C=C/C=C/C=C/c2[nH]ccc2Cl)oc(=O)c1 [AUXARCONJUGATIN B]
IC50 [1]: 0.51 µM | IC50 [2]: 5.74 µM
